Results from US20260207699A1, “PHARMACEUTICAL COMPOSITION OF KAPPA OPIOID RECEPTOR AGONIST, PREPARATION METHOD THEREFOR, AND USE THEREOF” (YICHANG HUMANWELL PHARMACEUTICAL CO., LTD., priority 2022, published 2026).
Where a name gives a salt, the structure may show the parent alone.

How the values were obtained:
[1] = Stability of salts of compound of formula (II), light (4500 Lux); assay type: physicochemical
Protocol: (§1) Samples of acetate salt, citrate salt, and phosphate salt of the compound of formula (II) were placed for investigation respectively, and the investigation conditions were high temperature test (40° C.) and light (4500 Lux). The investigation period was 5 days, 10 days and 30 days.

[2] = Stability of salts of compound of formula (II), high temperature test (40° C.); assay type: physicochemical; conditions: for stability at high temperature of 40° C. and under light of 4500 Lux: up to 30 days
Protocol: as §1

[3] = system: chloroquine-induced pruritus; experiment: Chloroquine-induced pruritus model of ICR mice; assay type: in vivo; conditions: 3 mg/kg subcutaneously
Protocol: (§2) Test sample: Prescription 5 of Example 9 of the present application was used as the test sample.
ICR mice, SPF grade, male, weighing 30 g-40 g, raised in a constant temperature environment, temperature (20±2) ° C., humidity 40%-70%; the raising environment was with a light rhythm 12 h:12 h (6:00-18:00), free feeding and water, and adaptive feeding for 1 week.
The mice were shaved on the back of the neck. After shaving, the animals were weighed, and the mice were randomly divided into 5 groups of 10 animals per group according to their body weight, which were the vehicle control group; ICI204448 (CAS No.: 121264-04-8, positive control drug) control group (3 mg/kg); Test group 1 (0.1 mg/kg); Test group 2 (0.5 mg/kg); and Test group 3 (1.5 mg/kg). After the corresponding drugs were administered subcutaneously according to groups, 400 μg of chloroquine, a pruritus model inducer, was intradermally injected into the shaved area of the back of the neck of mice. Following intradermal injection of chloroquine, mice were individually placed in transparent plexiglass boxes and the number of scratches over 30 min was counted.

[4] = system: mechanical allodynia; experiment: Rat postoperative analgesic model, mechanical allodynia (paw withdrawal threshold); assay type: in vivo, Sprague-Dawley rats; conditions: 3 mg/kg
Protocol: as §2
Sprague-Dawley rats, SPF grade, male, weighing 200 g-220 g, raised in a constant temperature environment, temperature (20±2) ° C., humidity 40%-70%; the raising environment was with a light rhythm 12 h:12 h (6:00-18:00), free feeding and water, and adaptive feeding for 1 week.
Animals were anesthetized with Zoletil (6 mg/kg)+xylazine ([…], i.p.). The toes of the animals were squeezed to confirm that the animals were fully anesthetized prior to surgery. The skin of the surgical area on the plantar site of the left hind foot was disinfected three times using iodophor and 70% ethanol. Wait until the skin was dry, to start the surgery. An incision about 1 cm long was made longitudinally toward the toe from the heel position. After incising the skin, the flexor digitorum brevis was lifted and a longitudinal blunt injury was caused. After pressing to stop bleeding, the wound was sutured. After surgery, the animals were placed on electric blankets, and returned to the cage when the animals were fully awake (free to move).
Twenty-four hours after surgery, the baseline test of mechanical allodynia was performed on rats. […] At the same time, 10 rats of the same batch were taken as the control of the normal group. Mechanical allodynia tests were performed at 0.5 h, 1 h, and 1.5 h after administration, respectively.
The rats were individually placed in a plexiglass box with a grid at the bottom to ensure that the rat feet could be tested. Rats would acclimatize for 15 minutes prior to the test. After completion of the acclimatizing, test fiber (Touch-Test Sensory Evaluator) was used to test at the central plantar site of the left hind foot of the rats. In the test, the test fiber was pressed vertically against the skin and force was applied to bend the fiber for 6-8 seconds, with 5 seconds apart between each test. In the test, an animal's rapid withdrawal of the foot was noted as a pain response.

[5] = Conventional injection, sterilization according to conventional requirements; assay type: physicochemical; conditions: prepared into a conventional injection
Protocol: After the cooled pharmaceutical solution is centrifuged at 3000 rpm to 10000 rpm, the precipitate is collected and detected by mass spectrometry (mass spectrometry conditions: chromatographic column: ACQUITY UPLC BEH C8, 50 mm×2.1 mm, 1.7 μm (20180306-C8-08); mobile phase A: 0.1% formic acid/water; mobile phase B: 0.1% formic acid/acetonitrile; flow rate: 0.2 ml/min; column temperature: 30° C.; detector wavelength: UV-210 nm; QDa; cone voltage: positive scan 10 volts, negative scan 5 volts; capillary voltage: plus 1.5 kV, minus 0.5 kV). Based on the detected MS values, it is speculated that the white flocculent precipitate is a degradation impurity as shown in the following formula: […]

Structure (SMILES)	HPLC purity (%) ([1]; 5 days)	HPLC purity (%) ([1]; 10 days)	HPLC purity (%) ([1]; 30 days)	HPLC purity (%) ([2]; 0 days)	HPLC purity (%) ([2]; 40° C., 5 days)	HPLC purity (%) ([2]; 40° C., 10 days)	HPLC purity (%) ([2]; 40° C., 30 days)	stability at high temperature of 40° C. and under light of 4500 Lux [2]	Inhibition rate ([3]; scratches over 30 min)	Number of scratches (mean ± standard error) ([3]; scratches over 30 min after 400 μg chloroquine intradermal)	Pain inhibition rate ([4]; 0.5 hours after administration)	Pain inhibition rate ([4]; 1 hours after administration)	Pain inhibition rate ([4]; 1.5 hours after administration)	appearance after sterilization when cooled to room temperature [5]
CC(C)C[C@@H](NC(=O)[C@@H](Cc1ccccc1)NC(=O)[C@H](N)[C@H](C)c1ccccc1)C(=O)N[C@H](CCCCN)C(=O)N1CCC(N)(C(=O)O)C1 (stereo partly drawn) [Acetate salt (1:1)]	97.9%	97.8%	97.6%	97.9%	97.7%	97.5%	97.1%	better stability	–	–	–	–	–	–
CC(C)C[C@@H](NC(=O)[C@@H](Cc1ccccc1)NC(=O)[C@H](N)[C@H](C)c1ccccc1)C(=O)N[C@H](CCCCN)C(=O)N1CCC(N)(C(=O)O)C1 (stereo partly drawn) [Citrate salt (1:1)]	96.2%	95.5%	94.7%	96.8%	95.7%	94.6%	93.5%	degraded in different degrees	–	–	–	–	–	–
CN(C(=O)Cc1ccc(Cl)c(Cl)c1)C(CN1CCCC1)c1cccc(OCC(=O)O)c1 (stereo not drawn) [ICI204448]	–	–	–	–	–	–	–	–	97.4%	7.3 ± 2.43	–	–	–	–
CN1CC[C@]23c4c5ccc(O)c4O[C@H]2[C@@H](O)C=C[C@H]3[C@H]1C5 [Morphine, morphine]	–	–	–	–	–	–	–	–	–	–	122.5%	84.2%	27.9%	–
CC(C)C[C@@H](NC(=O)[C@@H](Cc1ccccc1)NC(=O)[C@H](N)[C@H](C)c1ccccc1)C(=O)N[C@H](CCCCN)C(=O)N1CCC(N)(C(=O)O)C1 (stereo partly drawn) [Phosphate salt (1:1)]	96.2%	95.1%	94.2%	96.5%	95.6%	94.3%	92.3%	degraded in different degrees	–	–	–	–	–	–
CC(C)C[C@@H](NC(=O)[C@@H](Cc1ccccc1)NC(=O)[C@H](N)[C@H](C)c1ccccc1)C(=O)N[C@H](CCCCN)C(=O)N1CCC(N)(C(=O)O)C1 (stereo partly drawn) [compound (II)]	–	–	–	–	–	–	–	–	–	–	–	–	–	a flocculent precipitate is separated out
